Patent US4877893A, “Process for the preparation of 2-(O-alkyl)-2-thio-1,3,2-oxathiophospholanes” (priority 1987, dated 1989)

How the values were obtained:
Test in all cases: Fungicidal effect on infected agar nutrient media, colony diameter
Type in all cases: cell-based
Penicillium cyclopium = settings: 7th day after treatment, untreated 26.5
How it was run: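 Agar media (70 mm diameter, 10 mm thick) infected with Penicillium cyclopium were treated with EC formulations at 1, 10, 100 and 1000 ppm active ingredient. Fungal colony diameter was measured on day 7 after treatment.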

Sclerotinia sclerotinia = settings: 3rd day after treatment, untreated control 41.7
Protocol: Agar nutrient media (Diameter 70 MM, thickness 10 mm) infected by Sclerotonia sclerotinia suspension are treated with 20 EC formulations prepared according to Example 27 and comprising 1, 10, 100 and 1000 ppm, respectively of the active ingredient of the Formula I. The fungicidal effect of the compositions is evaluated on the 3rd day after treatment by measuring the diameter of the Fungi colonies.

Alternaria tenuis = settings: 5th day after treatment, untreated control 36.8
How it was run: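 Agar media (70 mm diameter, 10 mm thick) infected with Alternaria tenuis, treated with EC formulations at 1, 10, 100 and 1000 ppm active ingredient. Fungicidal effect read on day 5 after treatment as fungal colony diameter.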

Structure (SMILES)	Diameter of colony (mm) (Penicillium cyclopium; 1 ppm)	Diameter of colony (mm) (Penicillium cyclopium; 10 ppm)	Diameter of colony (mm) (Penicillium cyclopium; 100 ppm)	Diameter of colony (mm) (Penicillium cyclopium; 1000 ppm)	Diameter of colony (mm) (Sclerotinia sclerotinia; 1 ppm)	Diameter of colony (mm) (Sclerotinia sclerotinia; 10 ppm)	Diameter of colony (mm) (Sclerotinia sclerotinia; 100 ppm)	Diameter of colony (mm) (Sclerotinia sclerotinia; 1000 ppm)	Diameter of colony (mm) (Alternaria tenuis; 1 ppm)	Diameter of colony (mm) (Alternaria tenuis; 10 ppm)	Diameter of colony (mm) (Alternaria tenuis; 100 ppm)	Diameter of colony (mm) (Alternaria tenuis; 1000 ppm)
CC(I)COP1(=S)OCCS1 (stereo not drawn) [Compound 15]	19.1 mm	15.5 mm	5.8 mm	0 mm	34.3 mm	30.3 mm	1.4 mm	0 mm	35.9 mm	21.1 mm	5.5 mm	0 mm
CC(C)COP1(=S)OCCS1 (stereo not drawn) [Compound 50, 2-(0-2'-methyl-n-propyl)-2-thio-1,3,2-oxathiophospholane]	25.1 mm	19.2 mm	7.7 mm	0 mm	36.5 mm	29.7 mm	3.7 mm	0 mm	35.2 mm	23.8 mm	5.3 mm	0 mm
CC(Br)C(C)OP1(=S)OCCS1 (stereo not drawn) [Compound 29]	25.0 mm	19.2 mm	8.0 mm	0 mm	31.9 mm	25.2 mm	1.2 mm	0 mm	33.2 mm	23.6 mm	6.5 mm	0 mm
CC1CSP(=S)(OC(C)C(C)Br)O1 (stereo not drawn) [Compound 38]	24.3 mm	18.6 mm	7.4 mm	0 mm	37.8 mm	31.3 mm	0 mm	0 mm	30.2 mm	24.5 mm	6.9 mm	0 mm
CCCOP1(=S)OC(C)CS1 (stereo not drawn) [Compound 47, 2-(0-n-propyl)-2-thio-5-methyl-1,3,2-oxathiophospholane]	23.8 mm	20.1 mm	8.3 mm	0 mm	33.9 mm	30.2 mm	3.9 mm	0 mm	33.5 mm	25.7 mm	7.0 mm	0 mm
CCCCOP1(=S)OCCS1 (stereo not drawn) [Compound 58]	21.9 mm	16.1 mm	8.4 mm	0 mm	36.2 mm	29.1 mm	1.9 mm	0 mm	32.7 mm	23.9 mm	7.5 mm	0 mm
CC(I)COP1(=S)OCC(C)S1 (stereo not drawn) [Compound 27]	23.8 mm	17.5 mm	4.6 mm	0 mm	41.2 mm	28.6 mm	1.4 mm	0 mm	33.5 mm	22.4 mm	8.8 mm	0 mm
CC(Br)COP1(=S)OC(C)CS1 (stereo not drawn) [Compound 23]	22.6 mm	15.8 mm	4.3 mm	0 mm	36.9 mm	29.7 mm	3.6 mm	0 mm	33.8 mm	24.1 mm	5.2 mm	0 mm
CC1CSP(=S)(OCCCl)O1 (stereo not drawn) [Compound 4, 2-(0-2'-chloroethyl)-2-thio-5-methyl-1,3,2-oxathiophospholane]	24.1 mm	19.4 mm	9.0 mm	0 mm	34.6 mm	27.6 mm	0 mm	0 mm	32.6 mm	23.7 mm	6.5 mm	0 mm
CCC(C)OP1(=S)OC(C)C(C)S1 (stereo not drawn) [Compound 53, 2-(0-1'-methyl-n-propyl)-2-thio-4,5-dimethyl1,3,2-oxathiophospholane]	24.8 mm	19.2 mm	7.6 mm	0 mm	35.8 mm	30.0 mm	3.8 mm	0 mm	33.9 mm	25.4 mm	6.6 mm	0 mm
CC1COP(=S)(OC(C)C(C)I)S1 (stereo not drawn) [Compound 33]	22.3 mm	20.7 mm	6.1 mm	0 mm	33.2 mm	26.4 mm	0 mm	0 mm	33.0 mm	21.3 mm	6.3 mm	0 mm
CC(CI)OP1(=S)OC(C)CS1 (stereo not drawn) [Compound 21, 2-(0-1'-methyl-2'-iodoethyl)-2-thio-5-methyl-1,3,2-oxathiophospholane]	23.7 mm	20.0 mm	6.9 mm	0 mm	33.8 mm	25.8 mm	2.50 mm	0 mm	30.9 mm	24.2 mm	7.2 mm	0 mm
CC(Br)COP1(=S)OCCS1 (stereo not drawn) [Compound 14]	18.2 mm	17.6 mm	7.9 mm	0 mm	38.1 mm	28.1 mm	0 mm	0 mm	31.3 mm	21.3 mm	5.7 mm	0 mm
